# Reference: paper PMC8246065 (The EMBO Journal, 2021)
# What was measured:
# [1] = test system: HeLa inducible NOD1 or NOD2 cells; test: ELISA of IL6/IL8 in supernatants of HeLa inducible NOD1 or NOD2 cells; format: cell-based, human; settings: for IL6 production upon stressor stimulation: Fig 1A-1D; for IL6 production: lipid 10 µM, Appendix Fig S3E,F; for Effect of inhibitor on IL6 production by cytosolic S1P: inhibitor pretreatment, S1P 10 µM with digitonin (5 µg/ml), Appendix Fig S3A-D; for IL6 production in the presence of dynasore: Fig EV1D,E (S2B-S2E in rebuttal)
# Experimental: (§1) To differentiate THP‐1 into macrophage‐like cells, THP‐1 cells were stimulated with 50 ng/ml phorbol 12‐myristate 13‐acetate (Sigma‐Aldrich, P8139) for 24 h and then incubated with fresh medium for another 48 h. […] To induce NOD1 or NOD2 expression, HeLa NOD1 or NOD2 cells were treated with 0.5 µg/ml or 0.25 µg/ml doxycycline for at least 16 h, respectively. All cells have been checked for mycoplasma contamination regularly. Bone marrow‐derived macrophages (BMDMs) were obtained from tibial and femural bones and generated with DMEM containing 20% L929 cell supernatant, 10% FBS, 5% heat‐inactivated horse serum, 1 mM sodium pyruvate, and 2 mM L‐glutamine. For BMDM stimulation experiments, BMDMs were treated with IFN‐γ (20 ng/ml) overnight before stimulation.
# NOD1 = molecular target: T1, NOD1 (Homo sapiens, UniProt Q9Y239); test: Microscale thermophoresis (MST) binding to purified NOD1-GFP
# T1 sequence (Q9Y239 1-953): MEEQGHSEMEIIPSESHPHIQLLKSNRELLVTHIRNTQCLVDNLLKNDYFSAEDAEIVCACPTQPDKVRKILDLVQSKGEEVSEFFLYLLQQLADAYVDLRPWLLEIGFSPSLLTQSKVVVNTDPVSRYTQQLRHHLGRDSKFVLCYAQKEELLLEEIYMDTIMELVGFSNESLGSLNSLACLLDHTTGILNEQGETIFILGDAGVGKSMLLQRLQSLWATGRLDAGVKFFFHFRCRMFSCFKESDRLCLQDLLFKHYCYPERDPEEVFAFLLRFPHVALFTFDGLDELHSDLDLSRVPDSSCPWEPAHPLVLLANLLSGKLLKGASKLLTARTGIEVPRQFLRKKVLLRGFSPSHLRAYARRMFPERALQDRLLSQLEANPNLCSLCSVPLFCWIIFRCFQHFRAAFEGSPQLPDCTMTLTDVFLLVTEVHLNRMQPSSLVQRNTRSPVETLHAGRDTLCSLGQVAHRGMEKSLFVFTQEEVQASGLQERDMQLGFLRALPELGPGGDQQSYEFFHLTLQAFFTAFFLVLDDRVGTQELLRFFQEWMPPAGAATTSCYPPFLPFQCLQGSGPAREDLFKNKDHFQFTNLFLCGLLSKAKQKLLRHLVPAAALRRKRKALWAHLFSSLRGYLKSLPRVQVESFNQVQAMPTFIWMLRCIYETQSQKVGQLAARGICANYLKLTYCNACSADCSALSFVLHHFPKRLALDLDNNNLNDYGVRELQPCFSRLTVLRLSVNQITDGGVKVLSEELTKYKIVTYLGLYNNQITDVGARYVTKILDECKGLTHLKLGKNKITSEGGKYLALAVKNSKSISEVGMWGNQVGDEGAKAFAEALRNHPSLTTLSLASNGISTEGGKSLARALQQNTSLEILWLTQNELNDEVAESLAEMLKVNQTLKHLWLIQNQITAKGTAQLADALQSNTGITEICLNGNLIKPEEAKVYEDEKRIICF
# Experimental: (§2) The lysates were incubated with 2 ml GFP‐Trap agarose at 4°C for 4 h. The agarose was collected with Poly‐Prep columns by gravity flow. […] To remove heat shock proteins, columns were further washed with 50 ml wash buffer III (50 mM Tris–HCl, pH 7.5, 150 mM NaCl, 5 mM MgCl2+, 1 mM ATP). To elute the proteins, the agarose was mixed with 2 ml elution buffer (100 mM Glycine, pH 2.5) for 1 min and the eluted proteins were immediately neutralized with 0.2 ml of 1 M Tris, pH 10.5.
# NOD2 = NOD2 (Homo sapiens, UniProt Q9HC29); test: Microscale thermophoresis (MST) binding to purified NOD2-GFP
# Experimental: as §2
# [2] = test system: HEK293T NOD1/2 KO cells transfected with NOD1 or NOD2 mutants; test: IL8 ELISA of HEK293T cells transfected with NOD1/NOD2 mutants; format: cell-based, human; settings: for IL8 production in cells expressing LRR-deficient NOD1/2 (NOD1/2∆LRR): 20 µM with digitonin, 20 h
# Experimental: as §1
# The mutagenesis was performed with Q5® site‐directed mutagenesis kit (E0554, NEB) according to the manufacturer's instructions. The primers used in this study were as follows: NOD1 E157A F: 5′‐[…]gcg[…]‐3′, NOD1 E157A R: 5′‐[…]‐3′, NOD1 D161A F: 5′‐[…]gcg[…]‐3′, NOD1 D161A R: 5′‐[…]‐3′, NOD1 D203A F: 5′‐[…]gcg[…]‐3′, D203A R: 5′‐[…]‐3′, L218A F: 5′‐[…]gcg[…]‐3′, L218A R: 5′‐[…]‐3′, R237A F: 5′‐[…]gcg[…]‐3′, R237A R: 5′‐[…]‐3′, H257A F: 5′‐[…]gcg[…]‐3′, H257A R: 5′‐[…]‐3′, E267A F: 5′‐[…]gcg[…]‐3′, E267A R: 5′‐[…]‐3′, H290A F: 5′‐[…]gcg[…]‐3′, H290A R: 5′‐[…]‐3′, E306A F: 5′‐[…]gcg[…]‐3′, E306A R: 5′‐[…]‐3′, K324A F: 5′‐[…]gcg[…]‐3′, K324A R: 5′‐[…]‐3′, K328A F: 5′‐[…]gcg[…]‐3′, K328A R: 5′‐[…]‐3′, R340A F: 5′‐[…]gcg[…]‐3′, R340A R: 5′‐[…]‐3′, R344A F: 5′‐[…]gcg[…]‐3′, R344A R: 5′‐[…]‐3′, R350A F: 5′‐[…]gcg[…]‐3′, R350A R: 5′‐[…]‐3′, D372A F: 5′‐[…]gcg[…]‐3′, D372A R: 5′‐[…]‐3′, R373A F: 5′‐[…]gcg[…]‐3′, R373A R: 5′‐[…]‐3′, R399A F: 5′‐[…]gcg[…]‐3′, R399A R: 5′‐[…]‐3′, D423A F: 5′‐[…]gcg[…]‐3′, D423A R: 5′‐[…]‐3′, R435A F: 5′‐5′‐[…]gcg[…]‐3′, R435A R: 5′‐[…]‐3′, Q484A F: 5′‐[…]gcg[…]‐3′, Q484A R: 5′‐[…]‐3′, L495A F: 5′‐[…]gcg[…]‐3′, L495A R: 5′‐[…]‐3′, E514A F: 5′‐[…]gcg[…]‐3′, E514A R: 5′‐[…]‐3′, H517A F: 5′‐[…]gcg[…]‐3′, H517A R: 5′‐[…]‐3′, L540A F: 5′‐[…]gcg[…]‐3′, L540A R: 5′‐[…]‐3′, F544A F: 5′‐[…]gcg[…]‐3′, and F544A R: 5′‐[…]‐3′.
# Chain of NOD2 (Q9HC29 whole entry): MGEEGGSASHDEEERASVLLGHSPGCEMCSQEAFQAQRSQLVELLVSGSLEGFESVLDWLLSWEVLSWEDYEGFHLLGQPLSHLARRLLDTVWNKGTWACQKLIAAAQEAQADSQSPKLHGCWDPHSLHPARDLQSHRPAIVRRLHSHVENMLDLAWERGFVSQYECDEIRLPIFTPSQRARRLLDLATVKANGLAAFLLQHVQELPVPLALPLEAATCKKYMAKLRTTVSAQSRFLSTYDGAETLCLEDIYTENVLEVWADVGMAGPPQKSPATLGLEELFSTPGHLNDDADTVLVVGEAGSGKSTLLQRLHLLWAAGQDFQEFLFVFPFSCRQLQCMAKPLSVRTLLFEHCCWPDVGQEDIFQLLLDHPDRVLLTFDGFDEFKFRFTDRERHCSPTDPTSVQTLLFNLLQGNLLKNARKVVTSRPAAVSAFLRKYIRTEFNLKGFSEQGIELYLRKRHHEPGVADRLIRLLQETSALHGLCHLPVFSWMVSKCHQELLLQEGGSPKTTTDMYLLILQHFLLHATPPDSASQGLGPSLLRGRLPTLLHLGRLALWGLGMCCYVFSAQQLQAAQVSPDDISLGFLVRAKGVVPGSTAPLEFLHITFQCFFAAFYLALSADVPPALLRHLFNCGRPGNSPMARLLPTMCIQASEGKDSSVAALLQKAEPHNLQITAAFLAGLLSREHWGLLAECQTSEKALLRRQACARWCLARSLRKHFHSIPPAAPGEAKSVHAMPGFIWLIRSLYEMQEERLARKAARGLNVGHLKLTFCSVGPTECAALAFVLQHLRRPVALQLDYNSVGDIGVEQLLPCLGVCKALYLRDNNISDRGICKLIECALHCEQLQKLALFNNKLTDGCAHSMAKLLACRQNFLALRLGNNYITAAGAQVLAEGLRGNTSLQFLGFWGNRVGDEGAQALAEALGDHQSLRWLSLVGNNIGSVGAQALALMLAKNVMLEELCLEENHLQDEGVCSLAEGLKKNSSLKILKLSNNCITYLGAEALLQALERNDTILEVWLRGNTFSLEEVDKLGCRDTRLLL
Compound,Effect of inhibitor on IL6 production by cytosolic S1P [1],IL6 production in the presence of dynasore ([1]; Dynasore 50 µM),further results
"C[C@H]1CCC/C=C/[C@@H]2C[C@H](O)C[C@H]2[C@H](O)/C=C/C(=O)O1 [BFA, brefeldin A]",–,–,IL6 production upon stressor stimulation [1]: did not induce IL6 production
CCCCCCCCCCCCC/C=C/[C@@H](O)[C@H](CO)NC(C)=O [C2 ceramide],–,–,IL6 production [1]: did not induce IL6 production
CCCCCCCCCCCCC/C=C/[C@@H](O)[C@H](CO)NC(=O)CCCCCCCCCCCCCCC [C16 ceramide],–,–,IL6 production [1]: did not induce IL6 production; Interaction with NOD1 by MST (NOD1; Fig EV5B): not detected; Interaction with NOD2 by MST (NOD2; Fig EV5C): not detected
Cc1cc(CN)cc(C)c1NC(=O)c1ccc(-c2cc(Cl)ccc2Cl)o1 [CYM50358],failed to block,–,–
O=C(N/N=C/c1ccc(O)c(O)c1)c1cc2ccccc2cc1O [Dynasore],–,–,Effect of endocytosis inhibition on IL6 production in response to stress stimulations ([1]; Dynasore 50 µM): not blocked
CCCCCCCCc1ccc(CCC(N)(CO)CO)cc1 [FTY720],failed to block,–,–
CC(C)(C)S(=O)(=O)c1ccc2nccc(Nc3n[nH]c4ccc(F)cc34)c2c1 [GSK583],abolished,–,–
Cc1nn(C)c2nc(NNC(=O)Nc3c(Cl)cncc3Cl)cc(C(C)C)c12 [JTE013],failed to block,–,–
CC(=O)N[C@@H]1[C@@H](O[C@H](C)C(=O)N[C@@H](C)C(=O)N[C@H](CCC(=O)O)C(N)=O)[C@H](O)[C@@H](CO)O[C@H]1O [MDP],–,impaired,"IL8 production in cells expressing LRR-deficient NOD1/2 (NOD1/2∆LRR) [2]: not; IL8 production / activation in HEK293T cells expressing NOD2 1007fs ([2]; 20 µM, 48 h, digitonin): unresponsive; Binding affinity of NOD2 for MDP in the presence or absence of S1P (NOD2; Fig 6H, S1P 2 µM): not affected"
CC(=O)c1ncc([C@@H](O)[C@H](O)[C@H](O)CO)[nH]1 [THI],higher IL6 production,–,–
CCCCCCCCc1cccc(NC(=O)[C@H](N)COP(=O)(O)O)c1 [VPC23019],failed to block,–,–
CCCCCCc1cccc(NC(=O)[C@H](N)CCP(=O)(O)O)c1 [W146],failed to block,–,–
CCCCC[C@H](CC(=O)NO)C(=O)N[C@H](C(=O)N1CCC[C@H]1CO)C(C)C [actinonin],–,higher IL6 production,–
C=C1[C@@H](C)[C@H]2[C@H](Cc3ccccc3)NC(=O)[C@]23[C@H](OC(C)=O)/C=C/[C@@](C)(O)C(=O)[C@@H](C)C/C=C/[C@H]3[C@@H]1O [cytochalasin D],–,higher IL6 production,–
N[C@H](CCC(=O)N[C@H](CCC[C@H](N)C(=O)O)C(=O)O)C(=O)O [iE-DAP],–,impaired,"Binding affinity of NOD1 for iE-DAP in the presence or absence of S1P (NOD1; Fig 6G, S1P 2 µM): not affected; IL8 production in cells expressing LRR-deficient NOD1/2 (NOD1/2∆LRR) [2]: not; Activation (IL8) of NOD1 K328A or H517A ([2]; Fig EV5H): activated"
CC[C@@]1([C@@H]2O[C@@H]([C@H]3O[C@@](O)(CO)[C@H](C)C[C@@H]3C)C[C@@H]2C)CC[C@H]([C@]2(C)CC[C@]3(C[C@H](O)[C@@H](C)[C@@H]([C@@H](C)[C@@H](OC)[C@H](C)C(=O)O)O3)O2)O1 [monensin],–,–,IL6 production upon stressor stimulation [1]: did not induce IL6 production
COC(=O)Nc1nc2ccc(C(=O)c3cccs3)cc2[nH]1 [nocodazole],–,higher IL6 production,–
CC(=O)O[C@H]1C(=O)[C@@]2(C)[C@H]([C@H](OC(=O)c3ccccc3)[C@]3(O)C[C@H](OC(=O)[C@H](O)[C@@H](NC(=O)c4ccccc4)c4ccccc4)C(C)=C1C3(C)C)[C@]1(OC(C)=O)CO[C@@H]1C[C@@H]2O [paclitaxel],–,higher IL6 production,–
CCCCCCCCCCCCC/C=C/[C@@H](O)[C@@H](N)CO [sphingosine],–,–,IL6 production [1]: did not induce IL6 production
pertussis toxin,failed to block,–,–
